From ChEMBL document CHEMBL5244279, “Perspectives on SARS-CoV-2 Main Protease Inhibitors” (J Med Chem, 2021)

Tests used:
[1] = biological target: T1, Replicase polyprotein 1ab (Severe acute respiratory syndrome coronavirus 2, UniProt P0DTD1); assay: Inhibition of SARS CoV-2 Main protease using MCA-AVLQSGFR-Lys(DNP)-Lys-NH2 peptide as substrate by fluorescence based analysis
[2] = biological target: T1, Replicase polyprotein 1ab; assay: Inhibition of SARS CoV-2 Main protease incubated for 10 min by FRET assay
[3] = test system: SARS-CoV-2; format: functional, organism-based, Vero E6; conditions: Severe acute respiratory syndrome coronavirus 2, strain 107, Vero C1008
[4] = Inhibition of SARS CoV N-terminal his-tagged Main protease using Dabcyl-KTSAVLQSGFRKME-Edan peptide as substrate by fluorescence based analysis; parameters: species or system Severe acute respiratory syndrome-related coronavirus
[5] = Cytotoxicity against human Huh-7 cells assessed as reduction of cell viability; format: toxicity, cell-based
[6] = Cytotoxicity against cat CRFK cells assessed as reduction of cell viability; format: toxicity, cell-based, Felis catus
[7] = Cytotoxicity against mouse L929 cells assessed as reduction of cell viability; format: toxicity, cell-based
[8] = test system: SARS-CoV-2; format: functional, organism-based, Vero E6; conditions: Severe acute respiratory syndrome coronavirus 2, Vero C1008
[9] = Binding affinity to SARS CoV N-terminal his-tagged Main protease using Dabcyl-KTSAVLQSGFRKME-Edan peptide as substrate by fluorescence based analysis; parameters: species or system Severe acute respiratory syndrome-related coronavirus

| SMILES | IC50 [2] [nM] | EC50 [3] [nM] | other results |
| --- | --- | --- | --- |
| CCCCNC(=O)c1ccc(-n2sc3ccccc3c2=O)cc1 | – | – | IC50 [1]: 910 nM |
| COc1ccc(OC(C)C(=O)N2C[C@@H]3CCC[C@@H]3[C@H]2C(=O)N[C@H](C=O)C[C@@H]2CCNC2=O)cc1 (some centres not stated) | 69.1 | – | – |
| CN(C)c1ccc(CCC(=O)N2C[C@@H]3CCC[C@@H]3[C@H]2C(=O)N[C@H](C=O)C[C@@H]2CCNC2=O)cc1 | 378 | – | – |
| O=C[C@H](C[C@@H]1CCNC1=O)NC(=O)[C@@H]1[C@H]2CCC[C@H]2CN1C(=O)COc1ccc(Cl)cc1 | – | 670 | – |
| CC1(C)[C@@H]2[C@@H](C(=O)N[C@H](C=O)C[C@@H]3CCNC3=O)N(C(=O)CCc3cccc(F)c3)C[C@@H]21 | 16.5 | 2230 | – |
| O=C[C@H](C[C@@H]1CCNC1=O)NC(=O)[C@@H]1[C@H]2CCC[C@H]2CN1C(=O)CCc1cccc(F)c1 | – | 2970 | – |
| CC1(C)[C@@H]2[C@@H](C(=O)N[C@H](C=O)C[C@@H]3CCNC3=O)N(C(=O)COc3ccc(Cl)cc3)C[C@@H]21 | 19 | 530 | – |
| CC(C)[C@H](NC(=O)[C@H](C)NC(=O)OCc1ccccc1)C(=O)N[C@@H](Cc1c[nH]c2ccccc12)[C@@H](O)[C@H](O)[C@@H](Cc1c[nH]c2ccccc12)NC(=O)[C@@H](NC(=O)[C@H](C)NC(=O)OCc1ccccc1)C(C)C | – | – | Ki [4]: 73 nM |
| CCCC1CCC(OC(=O)N[C@@H](CC(C)C)C(=O)N[C@H](C=O)C[C@@H]2CCNC2=O)CC1 (some centres not stated) | – | – | CC50 [5]: > 100000 nM; CC50 [6]: > 100000 nM; CC50 [7]: > 100000 nM |
| O=c1c2ccccc2sn1CCCCc1ccccc1 | – | – | IC50 [1]: 410 nM |
| O=C[C@H](C[C@@H]1CCNC1=O)NC(=O)[C@@H]1[C@H]2CCC[C@H]2CN1C(=O)CCc1ccc(F)c(F)c1 | 17.4 | 30500 | – |
| O=C[C@H](C[C@@H]1CCNC1=O)NC(=O)[C@@H]1[C@H]2CCC[C@H]2CN1C(=O)c1cc2ccccc2[nH]1 | 153 | – | – |
| COc1ccc(OCC(=O)N2C[C@@H]3CCC[C@@H]3[C@H]2C(=O)N[C@H](C=O)C[C@@H]2CCNC2=O)cc1 | 36.2 | 24700 | – |
| CCCn1sc2ccccc2c1=O | – | – | IC50 [1]: 730 nM |
| O=C[C@H](C[C@@H]1CCNC1=O)NC(=O)[C@H](Cc1ccccc1)NC(=O)/C=C/c1cccc(Br)c1 | – | – | IC50 [8]: 700 nM |
| COc1ccc(/C=C/C(=O)N2C[C@@H]3CCC[C@@H]3[C@H]2C(=O)N[C@H](C=O)C[C@@H]2CCNC2=O)c(OC)c1 | 196 | – | – |
| O=C[C@H](C[C@@H]1CCNC1=O)NC(=O)[C@@H]1[C@H]2CCC[C@H]2CN1C(=O)COc1ccc2c(c1)OCCO2 | 93.5 | – | – |
| CC1(C)[C@@H]2[C@@H](C(=O)N[C@H](C=O)C[C@@H]3CCNC3=O)N(C(=O)COc3ccc(Br)cc3Cl)C[C@@H]21 | 13.3 | 1180 | – |
| O=c1c2ccccc2[se]n1-c1cccc([N+](=O)[O-])c1 | – | – | IC50 [1]: 150 nM |

| SMILES | IC50 [2] [nM] | EC50 [3] [nM] | other results |
| --- | --- | --- | --- |
| CN(C)c1ccc(C(=O)On2nnc3ccccc32)cc1 | – | – | Ki [9]: 17.4 nM |
| CC1(C)[C@@H]2[C@@H](C(=O)N[C@H](C=O)C[C@@H]3CCNC3=O)N(C(=O)c3ccc4ccccc4c3)C[C@@H]21 | 453 | – | – |
| CN(C)c1ccc(/C=C/C(=O)N2C[C@@H]3CCC[C@@H]3[C@H]2C(=O)N[C@H](C=O)C[C@@H]2CCNC2=O)cc1 | 375 | – | – |
| CCCCC1CCC(OC(=O)N[C@@H](CC(C)C)C(=O)N[C@H](C=O)C[C@@H]2CCNC2=O)CC1 (some centres not stated) | – | – | CC50 [5]: 63300 nM; CC50 [6]: 63300 nM; IC50 [8]: 900 nM; CC50 [7]: 63300 nM |
| CC1(C)[C@@H]2[C@@H](C(=O)N[C@H](C=O)C[C@@H]3CCNC3=O)N(C(=O)COc3cccc(C(F)(F)F)c3)C[C@@H]21 | 43.3 | 17000 | – |
| COc1ccc(OCC(=O)N2C[C@H]3[C@@H]([C@H]2C(=O)N[C@H](C=O)C[C@@H]2CCNC2=O)C3(C)C)cc1F | 37.2 | 4680 | – |
| O=C[C@H](C[C@@H]1CCNC1=O)NC(=O)[C@@H]1[C@H]2CCC[C@H]2CN1C(=O)/C=C/c1ccccc1 | 526 | – | – |
| CC1(C)[C@@H]2[C@@H](C(=O)N[C@H](C=O)C[C@@H]3CCNC3=O)N(C(=O)COc3ccc(Cl)c(Cl)c3)C[C@@H]21 | 12.4 | 2080 | – |
| CC1(C)[C@@H]2[C@@H](C(=O)N[C@H](C=O)C[C@@H]3CCNC3=O)N(C(=O)COc3ccc4ccccc4c3)C[C@@H]21 | 52.1 | – | – |
| CC1(C)[C@@H]2[C@@H](C(=O)N[C@H](C=O)C[C@@H]3CCNC3=O)N(C(=O)COc3ccc(Br)c(Cl)c3)C[C@@H]21 | 50.8 | – | – |
| Cc1cc(Cl)ccc1OCC(=O)N1C[C@@H]2CCC[C@@H]2[C@H]1C(=O)N[C@H](C=O)C[C@@H]1CCNC1=O | 19.7 | 1500 | – |
| O=C(On1nnc2ccccc21)c1cc2cc(F)ccc2[nH]1 | – | – | Ki [9]: 13.8 nM |
| CCCC1CCC(OC(=O)N[C@@H](CC(C)C)C(=O)N[C@@H](C[C@@H]2CCNC2=O)C(O)S(=O)(=O)O)CC1 (some centres not stated) | – | – | CC50 [5]: > 100000 nM; CC50 [6]: > 100000 nM; CC50 [7]: > 100000 nM |
| CC1(C)[C@@H]2[C@@H](C(=O)N[C@H](C=O)C[C@@H]3CCNC3=O)N(C(=O)COc3ccc(Cl)cc3Cl)C[C@@H]21 | 13 | 660 | – |
| O=C[C@H](C[C@@H]1CCNC1=O)NC(=O)[C@@H]1[C@H]2CCC[C@H]2CN1C(=O)c1cc2ccccn2n1 | 299 | – | – |
| O=C[C@H](C[C@@H]1CCNC1=O)NC(=O)[C@@H]1[C@H]2CCC[C@H]2CN1C(=O)COc1ccc(Cl)cc1F | 34.7 | 1650 | – |
| Cc1cc(-c2ccc(N/N=C3\C=Cc4c(S(=O)(=O)O)cc(S(=O)(=O)O)c(N)c4C3=O)c(C)c2)ccc1N/N=C1\C=Cc2c(S(=O)(=O)O)cc(S(=O)(=O)O)c(N)c2C1=O | – | – | IC50 [4]: 200 nM; Ki [4]: 73 nM |
| O=c1c2ccccc2sn1-c1ccc(Cl)cc1 | – | – | IC50 [1]: 390 nM |
| O=c1c2ccccc2sn1Cc1ccccc1 | – | – | IC50 [1]: 170 nM |
